Results published in BindingDB's records for doi:10.1016/0014-2999(96)00428-1 (Glaxo Research & Development, 1996).
“And” between values parts separate entries of the source, which are not always exact repeats. Equal values may be shown once.

Each compound was assayed against Hrh3 protein (Rattus norvegicus, UniProt Q5PPG3).
Chain of Hrh3 protein (Q5PPG3 whole entry): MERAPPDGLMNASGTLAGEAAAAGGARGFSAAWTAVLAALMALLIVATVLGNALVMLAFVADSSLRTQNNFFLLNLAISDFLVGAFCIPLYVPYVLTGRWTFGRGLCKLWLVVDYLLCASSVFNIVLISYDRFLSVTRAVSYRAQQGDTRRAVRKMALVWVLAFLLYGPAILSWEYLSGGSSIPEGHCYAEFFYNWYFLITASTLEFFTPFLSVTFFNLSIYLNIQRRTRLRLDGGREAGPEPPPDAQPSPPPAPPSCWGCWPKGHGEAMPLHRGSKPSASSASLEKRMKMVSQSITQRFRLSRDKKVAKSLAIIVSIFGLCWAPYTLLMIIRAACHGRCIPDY
COc1ccc(CN(CCN(C)C)c2ccccn2)cc1 was tested, and the Ki was 7940 nM and > 10000 nM. CN/C([CH-][N+](=O)[O-])=[NH+]\CCSCc1ccc(CN(C)C)o1 was tested, and the Ki was 5010 nM and > 10000 nM. In the case of CNC(=S)NCCCCc1cnc[nH]1 [1-[4-(1H-imidazol-5-yl)butyl]-3-methylthiourea], the Ki is reported as 63.1 nM. With Cc1[nH]cnc1CSCCNC(=N)NCCCc1c[nH]cn1 [2-[3-(1H-imidazol-5-yl)propyl]-1-(2-{[(5-methyl-1H-imidazol-4-yl)methyl]sulfanyl}ethyl)guanidine] the Ki was 19.9 nM and 12.6 nM. With NC(=NC1CCCCC1)N1CCC(c2cnc[nH]2)CC1 [GR-168320] the Ki was 0.15 nM and 0.19 nM.
